Measured values reported in US6603062B1, “Method for producing transgenic plants with modified 5-aminolevulinic acid biosynthesis, method for identifying 5-aminolevulinic acid synthesis effectors” (Aventis CropScience GmbH, priority 1997, dated 2003).

Tests used:
[1] = system: untransformed maize line; experiment: Tolerance threshold of the untransformed maize line to the GSAAT inhibitor; format: in vivo; conditions: for wet weight of nontransgenic plants: six days after medium change, means of 10 plants without root and seed kernel remains
Description: First, the tolerance threshold of the untransformed maize line over the GSAAT inhibitor 3-amino-2,3-dihydrobenzoic acid was determined. To this end, the maize seeds were surface-sterilized by washing them under sterile conditions first for 1 minute in 70% ethanol, then for 20 minutes in 5% sodium hypochlorite, 0.1% Tween 20 and subsequently six times briefly in sterile water. The seeds were then placed under sterile conditions on Murashige & Skoog medium (micro- and macronutrients, Sigma GmbH #M5524) containing 90 g/l sucrose and 8 g/l agar and grown for six days at room temperature under daylight fluorescent tubes in a 12-hour-light/12-hour-dark photoperiod until the second leaf emerged. At this stage, the plantlets were transferred to fresh medium with various concentrations of 3-amino-2,3-dihydrobenzoic acid.
After the plants had been grown for a further 10 days, the effect of the inhibitor was recorded. […] Six days after the medium was changed, the following wet weights were found for the nontransgenic plants (in each case means of 10 individual plants without root and remains of the seed kernel):
(§1) The tolerance of transgenic lines to 3-amino-2,3-dihydrobenzoic acid is determined in comparison with the nontransgenic original line. To this end, five regenerate plants per line whose size and root system visually corresponds to the above-described seedlings after six days germination are transferred to media without 3-amino-2,3-dihydrobenzoic acid (one plant) and with 100 μM 3-amino-2,3-dihydrobenzoic acid (four plants) and grown on.

[2] = molecular target: T1, GSAAT (Hordeum vulgare, UniProt P18492); conditions: background, Beale (1990); cited from earlier work
T1 sequence (P18492 35-469): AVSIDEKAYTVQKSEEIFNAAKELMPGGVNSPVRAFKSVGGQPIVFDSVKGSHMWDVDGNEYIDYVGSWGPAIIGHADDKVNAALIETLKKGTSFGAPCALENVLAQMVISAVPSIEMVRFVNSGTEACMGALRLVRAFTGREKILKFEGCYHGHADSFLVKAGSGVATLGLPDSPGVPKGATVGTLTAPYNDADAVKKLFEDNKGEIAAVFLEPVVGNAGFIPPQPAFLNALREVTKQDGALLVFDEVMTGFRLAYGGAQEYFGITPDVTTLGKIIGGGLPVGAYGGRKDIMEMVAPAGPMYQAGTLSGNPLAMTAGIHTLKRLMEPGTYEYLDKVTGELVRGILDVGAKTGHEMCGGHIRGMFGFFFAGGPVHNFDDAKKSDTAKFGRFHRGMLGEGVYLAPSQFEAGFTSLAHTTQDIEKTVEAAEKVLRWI

[3] = system: transgenic maize lines with the ALAS gene; experiment: Tolerance of transgenic maize lines with the ALAS (hemA) gene to the GSAAT inhibitor; format: in vivo; conditions: 100 μM; compared with untreated controls on medium without inhibitor
Description: To produce transgenic maize plants which contain an expression cassette for Rhodobacter sphaeroides hemA gene, a transformation was carried out as described in EP-A 0 469 273, with the difference that pALAS3f was employed as the DNA to be transferred. 41 independent maize transformants were obtained. Amongst these lines termed M23T1, M25T1 to M25T13 and M27T1 to M27T27, plants were regenerated as described. The presence of the complete hemA gene was detected in all transgenic plants by means of PCR using the oligodeoxynucleotides ALAS1 and ALAS2 (see Example 1) as PCR primers.
as §1

[4] = molecular target: T2, recombinant Hordeum vulgare GSAAT (Hordeum vulgare, UniProt P18492); experiment: GSAAT activity test (photometric detection of derivatized 5-aminolevulinic acid); format: biochemical; conditions: pH 6.5, 20° C., read-out: concentration leading to a 50% reduction in GSAAT activity
T2 construct: The mature Hordeum vulgare GSAAT was produced recombinantly in Escherichia coli; made in house; host or cells: Escherichia coli TG1, expression plasmid pATE19 co-transformed with pGroESL
T2 sequence (P18492 35-469): T1 sequence (P18492 35-469)
Description: GSAAT activity was detected by a photometric detection of the derivatized reaction product 5-aminolevulinic acid. The activity test was carried out in a 96-well flat-bottom microtiter plate (F form) made of polystyrene.
It was possible to carry out the desired number of individual measurements in parallel in the wells of the microtiter plate. The following information relates in each case to one well of the microtiter plate (MTP).
At a temperature of 20° C., 100 μl of enzyme solution (25 pkat/ml recombinant Hordeum vulgare GSAAT, 250 mM Bis Tris/HCl pH 6.5) and 10 μl of 25% (v/v) dimethyl sulfoxide in water were introduced into the well. […]
Immediately after the enzymatic reaction had started, the mixture was incubated for 30 minutes at 20° C. […] After the incubation had ended, the absorption of the solution was determined immediately at a wavelength of 540 nm with the aid of a microtiter plate photometer.
To determine the enzymatically formed quantity of 5-aminolevulinic acid, the blank value (see below) was first deducted from the absorption of the mixture to be analyzed. The difference between measured value and blank value was used for calculating, with the aid of a calibration series, the concentration of 5-aminolevulinic acid in the reaction mixture at the time immediately prior to addition of the ethyl acetoacetate. […]

[5] = system: Lemna gibba; experiment: Lemna test; format: in vivo; conditions: 20 μM in culture solution
Description: The phytotoxic action of GSAAT inhibitors was also determined in vivo by treating Lemna cultures.
To this end, Lemna gibba was cultured in sterile culture solution (0.4 g/l KNO3, 0.8 g/l CaCl2*2H2O, 0.366 g/l MgSO4*7H2O, 0.2 g/l KH2PO4, 2 ml/l solution I (2.23 g/l MnSO44H2O, 83 mg/l Kl, 2.5 mg/l CoCl2*6H2O, 0.86 g/l ZnSO4*7H2O, 2.5 mg/l CuSO4*5H2O, 0.62 g/l H3BO3, 25 mg/l Na2MoO4*2H2O) and 2 ml/l solution II(14.92 g/l Na-EDTA, 10.92 g/l FeSO4*7H2O)). In each case 3 plants were placed under sterile conditions into the a 100 ml Erlenmeyer flask which was filled with 50 ml culture solution containing the GSAAT inhibitor in a concentration of 20 μM. The culture flasks were illuminated at 25° C. with two 36 W daylight fluorescence tubes at a distance of 70 cm (24-hour light photoperiod). Growth and phenotype of the Lemna plants were observed over 7 days and compared with the growth and the phenotype of Lemna plants which had been grown in culture solution without inhibitor under otherwise identical conditions. It was characteristic of the phytotoxic effect of a GSAAT inhibitor that the newly-formed tissues were chlorotic. When light intensities were high, it was also possible for the plant tissue to become necrotic. Compounds with a rapid action frequently led to complete destruction of the plants after only one day, while the more slowly acting compounds first led to growth depression.

[6] = 100 μM, after a further 10 days

SMILES | wet weight of nontransgenic plants ([1]; 1 μM in medium) | wet weight of nontransgenic plants ([1]; 5 μM in medium) | wet weight of nontransgenic plants ([1]; 10 μM in medium) | wet weight of nontransgenic plants ([1]; 100 μM in medium) | biomass production [1, 6] | phenotype of newly-formed tissue [1, 6] | phenotype of regenerated plants of the nontransgenic line ([1]; 100 μM, compared with the untreated control) | biomass production ([1]; concentration under 5 μM, after a further 10 days) | effect on GSAAT [2] | phenotype of regenerated plants of most transgenic lines [3] | IC50 [4] | plants that had died ([5]; after 72 hours) | phytotoxic effect on Lemna plants ([5]; within 48 hours)
NC1C=CC=C(C(=O)O)C1 (stereo not shown) [3-amino-2,3-dihydrobenzoic acid] | 4.15 g | 3.82 g | 3.12 g | 1.53 g | markedly reduced | marked chlorosis | marked chlorosis and reduced biomass production | unaltered within the normal variations | inhibited | none of the regenerated plants in the presence of 100 μM 3-amino-2,3-dihydrobenzoic acid shows chloroses or reduced growth | – | – | –
NNCCCS(=O)(=O)O [compound A, hydrazinopropylsulfonic acid] | – | – | – | – | – | – | – | – | – | – | 6 µM | over 60% | chloroses and growth depression
